Several values for one entry are separate records, joined by “and”; a condition that tells them apart may be missing. Equal entries are not always repeated.
Experiments:
[1] = system: SHIVs; design: method as in PMID 34875675; conditions: SHIVs contain SIV CA derived from SIVmac239; cited from earlier work
[2] = system: stHIV-A19; experiment: Multi-round replication assay of stHIV-A19 in pigtail macaque PBMCs (PERT readout); assay type: cell-based, simian-tropic HIV-1; conditions: for mean EC95 against stHIV-A19 in pigtail macaque PBMC: PTM PBMCs, three donors, RT in supernatant at 7 days, calculated from EC50 with Hill coefficient 3.51
Method: Infectious stocks of stHIV-A19,[23] HIV-1 NL4-3, and SIVmac239 were produced in HEK-293T (RRID: CVCL_1926) cells transfected with full-length viral genome plasmids using the TransIT HEK-293 transfection reagent (Mirus Bio) according to the manufacturer’s instructions. Virus stock infectious titres were determined on TZM-bl reporter cells (RRID: CVCL_B478) as previously described.[26] For experiments using SupT1-CCR5 target cells (RRID: CVCL_X633),[27] cultures were maintained in RPMI 1640 medium supplemented with 10% foetal bovine serum (FBS), 2 mM glutamine, 100 U/ml penicillin, and 100 μg/ml streptomycin. SupT1-CCR5 cells were inoculated with stHIV-A19, HIV-1 NL4-3, or SIVmac239 at a multiplicity of infection (MOI) = 0.0125 and cultured at 37 °C for 4 h. Cells were then washed three times to remove input virus, counted, and cultured in triplicate in growth media containing serial threefold dilutions of LEN or no LEN (control). The concentration of DMSO (LEN vehicle) was maintained at 0.5% for all cultures. Culture supernatants were collected 7 days post-inoculation, clarified by centrifugation, and stored at −80 °C for later quantification of vRNA by quantitative reverse transcription polymerase chain reaction (qRT-PCR). Primary human peripheral blood mononuclear cells (PBMCs) from anonymous HIV-negative donors were isolated from leukopaks obtained from the New York Blood Center for experiments using primary human and PTM PBMC. […] The stHIV-A19 stock was quantified with a SYBR Green-based qPCR-based product-enhanced RT (PERT) assay using a purified reverse transcriptase (RT) protein standard, as previously described.[28] […] After 7 days, the virus in culture supernatants was quantified using the PERT assay. […] The EC95 for LEN against stHIV-A19 was then calculated from its corresponding EC50 values using the ECanything equation: ECF = EC50 × (F/100-F)^1/n, where F equals the percent response (e.g., 95) and n equals the Hill coefficient for LEN (n = 3.51) as previously described.[16]

[3] = system: stHIV-A19; experiment: Multi-round replication assay of stHIV-A19 in primary human PBMCs (PERT readout); assay type: cell-based, simian-tropic HIV-1; conditions: three donors, RT in supernatant at 7 days
Method: Infectious stocks of stHIV-A19,[23] HIV-1 NL4-3, and SIVmac239 were produced in HEK-293T (RRID: CVCL_1926) cells transfected with full-length viral genome plasmids using the TransIT HEK-293 transfection reagent (Mirus Bio) according to the manufacturer’s instructions. Virus stock infectious titres were determined on TZM-bl reporter cells (RRID: CVCL_B478) as previously described.[26] For experiments using SupT1-CCR5 target cells (RRID: CVCL_X633),[27] cultures were maintained in RPMI 1640 medium supplemented with 10% foetal bovine serum (FBS), 2 mM glutamine, 100 U/ml penicillin, and 100 μg/ml streptomycin. […] Cells were then washed three times to remove input virus, counted, and cultured in triplicate in growth media containing serial threefold dilutions of LEN or no LEN (control). […] Culture supernatants were collected 7 days post-inoculation, clarified by centrifugation, and stored at −80 °C for later quantification of vRNA by quantitative reverse transcription polymerase chain reaction (qRT-PCR). […] The stHIV-A19 stock was quantified with a SYBR Green-based qPCR-based product-enhanced RT (PERT) assay using a purified reverse transcriptase (RT) protein standard, as previously described.[28] […] After 7 days, the virus in culture supernatants was quantified using the PERT assay. […]

**Q.** With `CC(C)(C#Cc1ccc(-c2ccc(Cl)c3c(NS(C)(=O)=O)nn(CC(F)(F)F)c23)c([C@H](Cc2cc(F)cc(F)c2)NC(=O)Cn2nc(C(F)(F)F)c3c2C(F)(F)[C@@H]2C[C@H]32)n1)S(C)(=O)=O` [LEN, Lenacapavir] as the compound, how does the “reduced sensitivity of SHIVs compared with HIV-1” value [1] read?
**A.** The value was 5–8 fold.

**Q.** What about the “plasma protein binding-adjusted EC95 (PA-EC95) against stHIV-A19 in PTMs” value ([2]; EC95 in PTM PBMC adjusted by 9.7-fold plasma shift) of the same compound?
**A.** The value was 1.46 (±0.07 SD) nM and 1.46 nM.

**Q.** What about the “mean EC95 against stHIV-A19 in pigtail macaque PBMC” value [2] of the same compound?
**A.** Its value is 149 ± 7 pM.

**Q.** And the “mean EC95 against stHIV-A19 in pigtail macaque PBMC” value ([2]; listed as Lenacapavir)?
**A.** Its value is 149 (±7 SD) pM.

**Q.** And the “mean EC95 against stHIV-A19 in human PBMC” value ([3]; calculated from EC50 with Hill coefficient 3.51)?
**A.** Its value is 122 ± 31 pM.

**Q.** What about the “mean EC95 against stHIV-A19 in human PBMC” value ([3]; calculated from EC50 with Hill coefficient 3.51, listed as Lenacapavir) of the same compound?
**A.** Its value is 122 (±31 SD) pM.
